Read-outs that look alike come from different tables or passages of the source.
Legend:
Hmdm2 = Hmdm2 (Homo sapiens, UniProt Q00987); test: Selectivity (% A in 1 μM), ubiquitin ligase activity of Hmdm2; type: biochemical; details: read-out: Selectivity (% A* in 1 μM) Hmdm2
POSH = molecular target: T1, POSH (Homo sapiens, UniProt Q7Z6J0); test: IC50 assay procedure: GST-POSH auto-ubiquitination, homogeneous time-resolved fluorescence (Ub-cryptate / anti-GST XL665); type: biochemical; details: ubiquitin ligase activity of POSH; GST-POSH 33 nM, 30 min preincubation
T1 construct: GST-POSH lot NB81/p.118 3.6 mg/ml; fused on or other part: GST tag, used for detection with anti-GST XL665
T1 sequence (Q7Z6J0 1-269 limits assumed): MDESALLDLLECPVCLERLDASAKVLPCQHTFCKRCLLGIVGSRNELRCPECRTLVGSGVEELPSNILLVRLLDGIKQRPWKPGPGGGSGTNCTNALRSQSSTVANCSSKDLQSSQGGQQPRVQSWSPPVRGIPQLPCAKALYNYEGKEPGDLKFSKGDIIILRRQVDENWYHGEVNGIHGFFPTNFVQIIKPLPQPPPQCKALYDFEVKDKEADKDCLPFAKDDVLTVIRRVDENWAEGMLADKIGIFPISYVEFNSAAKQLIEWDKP
Text: In certain preferred embodiments, agents that inhibit (or promote) the ubiquitin ligase activity of a ubiquitin ligase, such as POSH, may be identified using a homogenous time resolved fluorescence assay. Such an assay may employ a GST fused to the RING subunit of a ubiquitin ligase (e.g. POSH). Two flurophore-conjugated detection reagents are also used: anti-GSTXL665 and europium cryptate labeled ubiqutin. The ubiqutination of the ubiquitin ligase by ubiqutin cryptate and binding of the anti-GST tagged XL665 brings the fluorophores into close proximity allowing FRET reaction to occur. Accordingly, FRET serves as a measurement of ubiquitination of the ubiquitin ligase. An enzymatic system may be set up to provide activated ubiquitin, e.g., by providing ubiquitin, an E1 and an E2. Compounds that will not allow the FRET reaction are considered to be inhibitors.
Step 3: establish IC 50 value measurements.
Experimental Protocols: 1. HTS Screening Assay Procedure • Microplates 10109D to 10114D compounds at 1 mM. • (Controls in column 1). • All compounds were perchase from ChemBridge corporation: ChemBridge corporation 16981 Via Tazon, Suite G San Diego, Calif. 92127 a. Microplates Labeling • Put labels to 6 PS U-bottom clear microplate. • Put labels to 18 black microplates (triplicats). b. Microplates Preparation • Put 100 μl GST-POSH at 33 nM in wells of the clear PS U-bottom microplates (exept wells A1-D1). • Negative control: place 100 μl dH2O in wells A1-D1. • (Positive control: place 100 μl GST-POSH at 33 nM in wells E1-H1). • Put 8 μl enzymes solution ×4 to black microplates (column 1 to 11). c. Incubation of E3 with Compounds • Transfer 5 μl of compounds (at 1 mM) to the microplates containing 100 μl GST-POSH. • Add 5 μl of DMSO to controls column 1. • Incubation 30 minutes at RT. d. Enzymatic (Ubiquitination) and Final Steps • Distribution of (triplicate) 3×23 μl incubated compounds into 3 black microplates containing enzymatic solution (on splitting apparatus). • Incubation 30 minutes at 37° C. • Addition of 8 μl EDTA 0.5 M. • Incubation 15 (at least) minutes at RT. • Addition of 30 μl GST XL 665 in reconstitution buffer. • Incubation 45 (at least) minutes at RT. • Reading fluorescence. • Record results in computer. • Put sealing foil back on original and diluted microplates and keep at −70° C. • Always the plates must be closed with lids during each step. 2. […] Microplates Labeling • Put labels to 4 clear PP clear microplate (18.2 μM, 9.1 uM, 1.82 uM, 910 nM,). • Put labels to 5 clear PS U-bottom clear microplate 4.44 μM, 909, 444, 91 and 44 nM) • Put labels to 15 black microplates (triplicates). f. Original Microplate Dilutions • Put DMSO 40 μl to (18.2 μM, 1.82 uM plates) and 20 ul to (9.1 uM, 910 nM plates. • Mix by pipetation the original microplate (3× up and down 45 μl). • Transfer 10 μl of compounds from the original microplate (at 91 μM) to the next microplate (=18.2 μM) on splitting apparatus. • Mix by pipetation the 18.2 uM microplate (3× up and down 45 μl). • Transfer 20 μl of compounds from the 18.2 uM microplate to the next microplate (=9.1 μM) on splitting apparatus. • Mix by pipetation the 9.1 uM microplate (3× up and down 45 μl). • Transfer 10 μl of compounds from the 9.1 uM microplate to the next microplate (=1.82 μM) on splitting apparatus. • Mix by pipetation the 1.82 uM microplate (3× up and down 45 μl). • Transfer 20 μl of compounds from the 1.82 uM microplate to the next microplate (=910 nM) on splitting apparatus • Mix by pipetation. g. Microplates Preparation • Put 123 μl GST-POSH at 33 nM in wells of the 5 clear PS U-bottom clear microplates. • Positive control: place 123 μl GST-POSH at 33 nM in well A12-h12 13 μl DMSO. • Negative control: place 123 μl dH2O in well B1 and 13 μl DMSO. • Put 8 μl enzymes solution ×4 to 15 black microplates. • Controls: put 8 μl enzymes solution ×4 to wells A1 to F1. h. […]

[1] = % activity at 1 μM compound, control is related to 100% activity, HTS protocol

Chain of Hmdm2 (Q00987 whole entry): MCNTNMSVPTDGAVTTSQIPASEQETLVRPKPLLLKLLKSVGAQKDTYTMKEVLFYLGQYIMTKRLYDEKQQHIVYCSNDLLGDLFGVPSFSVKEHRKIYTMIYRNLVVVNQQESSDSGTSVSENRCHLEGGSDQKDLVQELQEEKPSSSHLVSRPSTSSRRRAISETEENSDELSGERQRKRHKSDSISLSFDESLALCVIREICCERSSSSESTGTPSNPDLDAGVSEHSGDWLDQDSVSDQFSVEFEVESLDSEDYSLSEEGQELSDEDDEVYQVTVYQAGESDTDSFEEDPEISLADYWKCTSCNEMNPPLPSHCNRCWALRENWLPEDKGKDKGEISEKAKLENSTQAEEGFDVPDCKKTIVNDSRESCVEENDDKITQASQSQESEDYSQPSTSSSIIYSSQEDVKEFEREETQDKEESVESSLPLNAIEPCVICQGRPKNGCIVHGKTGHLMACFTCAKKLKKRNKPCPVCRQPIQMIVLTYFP

| SMILES | remaining activity at 1 µM (Hmdm2) | IC50 (POSH) | remaining activity at 1 µM (Hmdm2; [1]) |
| --- | --- | --- | --- |
| CN1C(=O)/C(=C\c2ccc(-c3cccc([N+](=O)[O-])c3)o2)SC1=S [Compound 115] | 108% | 600 nM |  |
| CC(=O)Nc1ccc(-c2cc3ccccn3c2)cc1 [Compound 78] |  | 900 nM | 93% |
| O=c1nc(-c2ccc(Br)cc2)cc(-c2ccc([N+](=O)[O-])cc2)[nH]1 [Compound 84] | 102% | 300 nM |  |
| C=CCN1C(=O)NC(=O)/C(=C/c2ccc(F)cc2)C1=O [Compound 12] |  | 1000 nM | 99% |
| Cc1ccc(/N=C/c2cc(Br)cc(Br)c2O)c(C)c1 [Compound 54] | 124% | 500 nM |  |
| O=C1C(=Cc2ccco2)C(=O)N(c2ccccc2)C(=S)N1c1ccccc1 [Compound 13] |  | 1000 nM | 11% |
| O=C1NC(=S)N(c2ccccc2)C(=O)/C1=C\c1c(Cl)cccc1Cl [Compound 6] |  | 800 nM | 129% |
| Cc1cc(C)c(O)c(/N=C/c2c(O)ccc3ccccc23)c1 [Compound 65] |  | 1000 nM | 98% |
| COC(=O)c1ccc(N2C(=O)c3cccc(N)c3C2=O)cc1 [Compound 21] |  | 800 nM | 80% |
| Cc1cc(/N=C/c2c(O)ccc3ccccc23)no1 [Compound 111] |  | 1000 nM | 72% |
| S=C(c1ccc(-c2cc(Cl)ccc2Cl)o1)N1CCCCC1 [Compound 35] | 101% | 500 nM |  |
| O=[N+]([O-])c1ccc(CN2CCN(c3cccc(Cl)c3)CC2)o1 [Compound 80] | 95% | 500 nM |  |
| Oc1c(Cl)cc(Cl)cc1/C=N/c1ccc(-c2nc3ccccc3[nH]2)cc1 [Compound 63] |  | 600 nM | 102% |
| COc1cc(/C=C2\SC(=O)NC2=O)ccc1OCc1ccc(Cl)cc1Cl [Compound 34] |  | 1000 nM | 123% |
| O=C1S/C(=C/c2ccc(-c3ccc([N+](=O)[O-])cc3Cl)o2)C(=O)N1c1ccccc1 [Compound 27] |  | 700 nM |  |
| O=C1/C(=C\c2ccc(Cl)c([N+](=O)[O-])c2)Sc2ccccc21 [Compound 50] |  | 100 nM | 98% |
| Oc1c(Br)cc(Cl)cc1/C=N/c1ccccn1 [Compound 64] |  | 900 nM | 115% |
| Oc1ccc2ccccc2c1/C=N/c1ncc(Br)cc1Br [Compound 66] |  | 900 nM | 120% |
| O=C1NC(=O)/C(=C\c2ccc(-c3ccc(F)cc3)o2)S1 [Compound 108] |  | 900 nM | 108% |
| O=c1/c(=C/c2cccc([N+](=O)[O-])c2O)sc2nc3ccccc3n12 [Compound 51] |  | 700 nM | 80% |
| O=C1CC(NNc2ccccc2)C(=O)N1c1cccc(Cl)c1 (stereo not shown) [Compound 22] |  | 900 nM | 102% |
| CN(C)c1ccc(/C=C2\SC(=S)N(C3CCS(=O)(=O)C3)C2=O)cc1 (stereo not shown) [Compound 110] | 51% | 600 nM |  |
| C=CCN1C(=O)NC(=O)/C(=C\c2ccccc2)C1=O [Compound 2] | 108% | 700 nM |  |

| SMILES | remaining activity at 1 µM (Hmdm2) | IC50 (POSH) | remaining activity at 1 µM (Hmdm2; [1]) |
| --- | --- | --- | --- |
| CCOC(=O)c1c(/N=C/c2cc(Br)ccc2O)sc2c1CCCC2 [Compound 68] |  | 1000 nM | 110% |
| Cc1c(C(=O)/C=C/c2cccs2)c2cc(O)ccc2n1C [Compound 76] | 110% | 400 nM |  |
| OCc1cccc(/N=C/c2cccc(O)c2O)c1 [Compound 57] | 80% | 300 nM |  |
| O=C1C=CC(=O)N1c1ccc(OC(F)(F)C(F)F)c(N2C(=O)C=CC2=O)c1 [Compound 20] | 132% | 900 nM |  |
| COc1ccc(CNc2cccc(N(C)C)c2)cc1 [Compound 106] |  | 900 nM | 80% |
| O=[N+]([O-])c1ccc(Cl)cc1CN1CCN(CCO)CC1 [Compound 82] |  | 300 nM | 120% |
| Cc1ccc2nsnc2c1/N=C/c1c(O)ccc2ccccc12 [Compound 53] | 125% | 500 nM |  |
| Oc1c(Br)cc(Br)cc1/C=N/c1nc2ccccc2s1 [Compound 62] |  | 700 nM | 120% |
| O=C1N=C(c2ccccc2)S/C1=C/c1ccc2ccccc2c1 [Compound 41] |  | 1000 nM | 106% |
| Cc1cc(I)ccc1NCn1nnc2ccccc21 [Compound 105] |  | 800 nM | 102% |
| Cc1cc([N+](=O)[O-])ccc1/N=C/c1ccc[nH]1 [Compound 70] | 125% | 600 nM |  |
| O=C(O)c1ccc(-c2ccc(/C=c3\sc4nc5ccccc5n4c3=O)o2)cc1 [Compound 28] | 90% | 700 nM |  |
| O=c1oc2cc(O)ccc2cc1-c1csc(-c2ccc(Cl)cc2)n1 [Compound 40] |  | 1000 nM | 159% |
| Cc1ccc(/C=N/c2ccc(C(N)=O)cc2)o1 [Compound 73] |  | 1500 nM | 96% |
| O=C1C(=Cc2ccc(-c3ccc(Br)cc3)o2)C(=O)c2ccccc21 [Compound 38] | 111% | 400 nM |  |
| CC(C)Oc1ccc(/C=C2/SC(=S)NC2=O)cc1 [Compound 26] |  | 3000 nM | 98% |
| CCCCOc1ccc(NC(=S)N2CCn3c4c(c(=O)c5cc(C)ccc53)CCC42)cc1 (stereo not shown) [Compound 81] | 73% | 100 nM |  |
| COc1ccc(/C=C/C(=O)C2C(=O)CCC2=O)cc1OC [Compound 113] |  | 400 nM | 101% |
| O=C1N=C(c2ccccc2)S/C1=C/c1ccc(-c2cccc([N+](=O)[O-])c2)o1 [Compound 36] |  | 1000 nM | 71% |
| CN(C)c1ccc(/C=C2\C(=O)N(c3ccc([N+](=O)[O-])cc3)N=C2N2CCOCC2)cc1 [Compound 42] | 111% | 5000 nM |  |
| Cc1ccc(/C=N/c2ccc(Cl)cc2)o1 [Compound 74] |  | 1000 nM | 107% |
| N=C1NC(=O)/C(=C\c2ccc(-c3ccc(I)cc3)o2)S1 [Compound 29] | 104% | 700 nM |  |
| Cc1c(C(=O)/C=C/c2ccccc2)c2cc(O)ccc2n1C [Compound 75] | 113% | 400 nM |  |
